Results published in patent US20190169218A1, “AMPHIPATHIC COMPOUND HAVING NOVEL PENTA-SACCHARIDE HYDROPHILIC GROUP AND USE THEREOF” (Industry-University Cooperation Foundation Hanyang …, priority 2016, published 2019).

Key:
[1] = target: T1, human β2 adrenergic receptor (β2AR) (Homo sapiens, UniProt P07550); assay: β2AR activity by [3H]-dihydroalprenolol radioactive ligand binding assay; type: biochemical; details: for long-term β2AR activity ([3H]-DHA binding): 3 or 5 days at room temperature
T1 construct: Flag; made in house
Procedure: The membrane protein stabilizing ability of receptors (mBBr-β2ARs) solubilized in PSAs or PSEs was evaluated by measuring the binding activity of the receptors to [^3H]-dihydroalprenolol ([^3H]-DHA).
Specifically, radioactive ligand binding assay was performed as follows. β2ARs purified with 0.1 wt % DDM was concentrated to about 10 mg/mL (approximately 200 μM). β2ARs purified with DDM were used to prepare a master binding mixture containing 10 nM [^3H]-dihydroalprenolol (DHA), which was dissolved in 0.2 wt % of DDM, PSA or PSE and supplemented with 0.5 mg/mL BSA. At a concentration of 0.2 pmol, the activity of the receptors purified with the amphipathic compounds was monitored at regular intervals over a 4-day incubation period. Protein samples were incubated on ice for 2 days and then at room temperature for 2 days. Receptor activity was measured by binding assay for dissolved radioactive ligands. The receptors purified with DDM or a novel formulation (PSA-C11, PSE-C11 or PSE-C13) were incubated with 10 nM [^3H]-DHA at room temperature for 30 minutes. The mixture was loaded onto a G-50 column, a solution passed through the column was collected in 1 mL of a binding buffer (100 mM NaCl and 20 mM HEPES (pH 7.5) supplemented with 0.5 mg/mL BSA and 20×CMC amphipathic compounds), and 15 mL of a scintillation fluid was added to the solution. Receptor-bound [^3H]-DHA was measured using a scintillation counter (Beckman). Non-specific binding of [^3H]-DHA was measured by adding 1 μM alprenolol (Sigma) to the same reaction mixture. The binding degree of the receptors to [^3H]-DHA was represented by a column graph.
The ability of TPSs (TPS-As, TPS-Es and TPS-ELs) to stabilize the structures of human β2 adrenergic receptors (β2ARs) and G protein-coupled receptors (GPCRs) was measured. That is, DDM-purified receptors were diluted with a buffer solution containing only each of the TPSs without cholesteryl hemisuccinate (CHS) or a buffer solution containing CHS and DDM. The final concentration of the compounds was CMC+0.2wt %, and the binding activity of the receptors to ligands was evaluated by measuring the degree of binding of the receptors to [^3H]-dihydroalprenolol ([^3H]-DHA).
Specifically, radioactive ligand binding assay was performed as follows. β2ARs were purified with 0.1 wt % DDM (D. M. Rosenbaum et al., Science, 2007, 318, 1266-1273.) and was concentrated to about 10 mg/mL (approximately 200 μM). β2ARs purified with DDM were used to prepare a master binding mixture containing 10 nM [^3H]-dihydroalprenolol (DHA), which was dissolved in 0.2% amphipathic compounds (DDM or TPSs) and supplemented with 0.5 mg/mL BSA. The activity of the receptors purified with the amphipathic compounds was monitored at regular intervals over a 3- to 5-day incubation period. The receptors purified with DDM or TPSs were incubated with 10 nM [^3H]-DHA at room temperature for 30 minutes. The mixture was loaded onto a G-50 column, a solution passed through the column was collected in 1 mL of a binding buffer (100 mM NaCl and 20 mM HEPES (pH 7.5) supplemented with 0.5 mg/mL BSA and 20×CMC of each amphipathic compound), and 15 mL of a scintillation fluid was added to the solution. Receptor-bound [^3H]-DHA was measured using a scintillation counter (Beckman). The binding degree of the receptors to [^3H]-DHA was represented by a column graph.

[2] = target: T1, human β2 adrenergic receptor (β2AR); assay: bimane fluorescence spectrum of mBBr-β2AR solubilized in amphipathic compounds; details: 0.1 wt % compound
Procedure: The structural stability of monobromobimane-labeled β2ARs (mBBr-β2ARs) solubilized in PSAs and PSEs was evaluated in the presence of a high-affinity agonist BI (BI-167107).
Specifically, monobromobimane (mBBr)-labeled β2ARs (mainly labeled on Cys265) was used to measure changes in a fluorescence spectrum induced by a local structural change near transmembrane helix 6 (TM6) (see Yao, X. et al., Nat. Chem. Biol. 2006, 2, 417-422.). 0.5 μL of BI (agonist)-bound mBBr-β2ARs dissolved at a concentration of […] in 0.1 wt % DDM was diluted with 500 μL of a buffer solution containing 0.1 wt % of each of the novel amphipathic compounds (PSA-C11, PSE-C11 and PSE-C13). After incubation of the protein samples for 30 minutes, the spectrum of mBBr was measured and compared with the spectrum of mBBr-labeled receptors dissolved in 0.1 wt % DDM. The 370 nm excitation wavelength was used for bimane fluorescence, and the emission spectra were measured at 430 to 510 nm using a Spex FluoroMax-3 spectrometer (Jobin Yvon Inc.) at 0.5 nm s^−1 in 1-nm units, and the photon counting mode was set to a 4-nm emission bandwidth pass. mBBr-labeled β2ARs dissolved in DDM were used as a positive control group. Data is representative of three independent experiments.
The structural change and structural stability of mBBr-β2ARs by PSAs/PSEs and DDM according the presence or absence of a full agonist (isoproterenol, ISO) or the combination of ISO and a G-protein were measured. It is well known that a full agonist (e.g., BI) and the binding of a Gs-protein are simultaneously required for full activation of receptors (see Rasmussen, S. G. F. et al., Nature 2011, 469, 175-180.).
Specifically, G protein coupling experiments were performed using the following method. 0.5 μL of non-ligand mBBr-labeled receptors at a concentration of 50 μM was diluted with 500 μL of a buffer solution containing a 0.1 wt % amphipathic compound at room temperature for 15 minutes. After dilution, a dilution containing the receptors at a final concentration of 50 nM was obtained. 2 μM isoproterenol (ISO) was added to the diluted solution, and the solution was incubated for an additional 15 minutes. 250 nM Gs-protein was additionally added to the solution, and then the protein samples included in the solution were incubated at room temperature for an additional 20 minutes. The 370 nm excitation wavelength was used for bimane fluorescence, and the emission spectra were measured at 430 to 510 nm using a Spex FluoroMax-3 spectrometer (Jobin Yvon Inc.) at 0.5 nm s^−1 in 1-nm units, and the photon counting mode was set to a 4-nm emission bandwidth pass. The same experiment was repeated using 0.1 wt % DDM, which was used as a positive control. Data is representative of three independent experiments.

[3] = first two days of incubation at 0° C.
[4] = in the presence of agonist BI (BI-167107)
[5] = in the presence of full agonist isoproterenol (ISO)

T1 sequence (P07550 whole entry): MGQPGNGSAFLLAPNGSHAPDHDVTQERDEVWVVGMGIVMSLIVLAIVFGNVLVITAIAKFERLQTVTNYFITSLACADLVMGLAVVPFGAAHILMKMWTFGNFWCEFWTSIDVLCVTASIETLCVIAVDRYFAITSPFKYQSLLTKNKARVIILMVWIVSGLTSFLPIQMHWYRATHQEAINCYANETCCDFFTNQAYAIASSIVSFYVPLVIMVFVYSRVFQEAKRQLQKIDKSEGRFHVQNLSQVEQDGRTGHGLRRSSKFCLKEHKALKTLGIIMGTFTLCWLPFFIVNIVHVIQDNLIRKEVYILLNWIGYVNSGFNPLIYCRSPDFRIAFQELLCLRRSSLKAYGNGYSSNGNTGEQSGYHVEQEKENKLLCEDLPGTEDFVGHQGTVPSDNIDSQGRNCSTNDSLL

Row | SMILES | long-term β2AR activity ([3H]-DHA binding) [1] | β2AR activity ([3H]-DHA binding) during incubation [1, 3] | bimane fluorescence spectrum of mBBr-β2AR [2, 4] | bimane fluorescence spectrum of mBBr-β2AR [2, 5] | initial β2AR activity ([3H]-DHA binding) ([1]; 0.2 wt % DDM, PSA or PSE) | β2AR activity ([3H]-DHA binding) during incubation ([1]; incubation at room temperature (days 3-4)) | initial β2AR activity ([3H]-DHA binding) ([1]; TPSs at CMC+0.2wt %, without CHS)
1 | CCCCCCCCCCCCO[C@@H]1O[C@H](CO)[C@@H](O[C@H]2O[C@H](CO)[C@@H](O)[C@H](O)[C@H]2O)[C@H](O)[C@H]1O [DDM, n-dodecyl-β-D-maltopyranoside, reference compound] | the activity was rapidly lost over time | well maintained the initial activity thereof |  |  |  |  | 
2 | CCCCCCCCCCCC(CCCCCCCCCCC)CO[C@@H]1OC(CO[C@@H]2OC(CO)[C@@H](O)C(O)C2O)[C@@H](O[C@@H]2OC(CO)[C@@H](O)C(O)C2O)C(O[C@@H]2OC(CO)[C@@H](O)C(O)C2O)C1O[C@@H]1OC(CO)[C@@H](O)C(O)C1O (stereo partly drawn) [PSA-C11] |  | well maintained the initial activity thereof | very similar to that obtained from the receptors dissolved in DDM | spectra similar to the receptor solubilized by DDM |  |  | 
3 | CCCCCCCCCCCOCC(COCCCCCCCCCCC)O[C@@H]1OC(CO[C@@H]2OC(CO)[C@@H](O)C(O)C2O)[C@@H](O[C@@H]2OC(CO)[C@@H](O)C(O)C2O)C(O[C@@H]2OC(CO)[C@@H](O)C(O)C2O)C1O[C@@H]1OC(CO)[C@@H](O)C(O)C1O (stereo partly drawn) [PSE-C11] |  | well maintained the initial activity thereof | very similar to that obtained from the receptors dissolved in DDM | spectra similar to the receptor solubilized by DDM | higher initial activity than proteins solubilized in DDM | the best | 
4 | CCCCCCCCCCCCCOCC(COCCCCCCCCCCCCC)O[C@@H]1OC(CO[C@@H]2OC(CO)[C@@H](O)C(O)C2O)[C@@H](O[C@@H]2OC(CO)[C@@H](O)C(O)C2O)C(O[C@@H]2OC(CO)[C@@H](O)C(O)C2O)C1O[C@@H]1OC(CO)[C@@H](O)C(O)C1O (stereo partly drawn) [PSE-C13] |  | well maintained the initial activity thereof | somewhat different bimane fluorescence spectrum compared to the receptors dissolved in DDM |  | higher initial activity than proteins solubilized in DDM |  | 
5 | CCCCCCCCOCC(COCCCCCCCC)(COCCCCCCCC)CO[C@@H]1OC(CO[C@@H]2OC(CO)[C@@H](O)C(O)C2O)[C@@H](O[C@@H]2OC(CO)[C@@H](O)C(O)C2O)C(O[C@@H]2OC(CO)[C@@H](O)C(O)C2O)C1O[C@@H]1OC(CO)[C@@H](O)C(O)C1O (stereo partly drawn) [TPS-E8] | significantly better than that of DDM |  |  |  |  |  | the most excellent
